US12344649B2, “Modulators of parathyroid hormone receptor (PTHR1)” (Flagship Pioneering Innovations VI, LLC, priority 2019, dated 2025)
Values joined by “and” are separate entries in the source; they are usually repeats but may differ in a detail not shown here. Equal entries are not always repeated. Where no end group is shown, it is not given here.

Legend:
Type in all cases: cell-based
PTHR1 [1] = molecular target: T1, PTHR1 (Homo sapiens, UniProt Q03431); assay: β-arrestin1 recruitment BRET assay in transfected HEK293T cells; parameters: Flag (N); Life Technologies Corporation, CA (arrestin cDNA); host or cells: HEK293T (CRL-3216, ATCC); conditions: β-arrestin1 recruitment, replicate plates; for −log10Slope: fitted curve slope; for EC50: read-out: −log10EC50 (converted)
T1 sequence (Q03431 27-593): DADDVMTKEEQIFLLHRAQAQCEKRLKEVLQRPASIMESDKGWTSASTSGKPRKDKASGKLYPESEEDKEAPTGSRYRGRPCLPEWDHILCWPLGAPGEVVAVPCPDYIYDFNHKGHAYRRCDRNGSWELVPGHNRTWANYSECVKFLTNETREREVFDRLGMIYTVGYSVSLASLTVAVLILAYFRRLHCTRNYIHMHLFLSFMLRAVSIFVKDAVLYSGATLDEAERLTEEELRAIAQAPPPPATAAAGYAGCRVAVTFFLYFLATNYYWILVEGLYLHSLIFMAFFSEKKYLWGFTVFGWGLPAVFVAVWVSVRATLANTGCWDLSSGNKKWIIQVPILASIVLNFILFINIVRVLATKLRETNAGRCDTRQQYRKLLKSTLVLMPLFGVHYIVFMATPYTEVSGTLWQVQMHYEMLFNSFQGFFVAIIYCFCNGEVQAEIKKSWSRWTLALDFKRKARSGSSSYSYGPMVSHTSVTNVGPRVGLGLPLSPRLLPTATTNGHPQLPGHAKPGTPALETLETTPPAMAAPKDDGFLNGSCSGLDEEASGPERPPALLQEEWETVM
Procedure: (§1) 18-24 hours post transfection, the Luciferase substrate Coelenterazine (NanoLight Technologies, AZ) was added to cells, a baseline BRET measurement was taken after 5 minutes incubation, and then serial dilutions of peptides, diluted in PBS (with 0.5 mM MgCl2+0.1% BSA FAF), were added to cells, and BRET signal was measured every 2 minutes for 30 minutes on Hybrid Multi-Mode Reader (Synergy Neo2, BioTek, VT). Seventy-five peptides were tested in the β-arrestin recruitment assay.

PTHR1 [2] = molecular target: T1, PTHR1; assay: cAMP accumulation assay (HTRF) in CHO-K1/Ga15/PTHR1 cells; parameters: host or cells: CHO-K1 (recombinant line CHO-K1/Ga15/PTHR1); conditions: for Emax: CHO-K1, cAMP assay, fitted dose-response maximum; for EC50: read-out: −log10EC50 (converted)
Procedure: Cell suspension (5 μL) was seeded in 384-well plates at a density of 3,000 cells/well. Cells were treated with test samples (5 μL) or agonist (PTH 1-34) for 30 minutes at room temperature. cAMP-d2 working solution (5 μL) and anti-cAMP-Cryptate working solution (5 μL) were added to cells and incubated for 60 minutes at room temperature. The signal of the assay plate was read with PheraStar (BMG LABTECH, NC), an HTRF compatible reader.

PTHR1 [3] = molecular target: T1, PTHR1; assay: β-arrestin2 recruitment BRET assay in transfected HEK293T cells; parameters: Flag (N); Life Technologies Corporation, CA (arrestin cDNA); host or cells: HEK293T (CRL-3216, ATCC); conditions: for −log10Slope / EC50: β-arrestin2 recruitment, replicate plates; for −log10Slope: fitted curve slope; for β-arrestin2 assay activity compared to control peptide: FIG. 2, PTH 1-34 positive control; for β2-arrestin: relative to PTH [1-34], HEK293T cells, BRET; for EC50: read-out: −log10EC50 (converted)
Procedure: as §1

[4] = cAMP assay, fitted dose-response curve
[5] = cAMP assay, fitted dose-response slope
[6] = cAMP accumulation, fitted curve slope, replicate plates
[7] = cAMP accumulation, replicate plates

| Sequence | −log10Slope (PTHR1 [1]) | EC50 (PTHR1 [1]) | Emax (PTHR1 [2]) | EC50 (PTHR1 [2]; [4]) | −log10Slope (PTHR1 [2]; [5]) | cAMP (PTHR1 [2]; relative to PTH [1-34], CHO-K1/Ga15/PTHR1 cells) | −log10Slope (PTHR1 [3]) | −log10Slope (PTHR1 [2]; [6]) | EC50 (PTHR1 [2]; [7]) | β2-arrestin (PTHR1 [3]) | EC50 (PTHR1 [3]) | cAMP accumulation activity compared to control peptide (PTHR1 [2]; FIG. 3, PTH 1-34 positive control) | β-arrestin2 assay activity compared to control peptide (PTHR1 [3]) |
| --- | --- | --- | --- | --- | --- | --- | --- | --- | --- | --- | --- | --- | --- |
| GVAELQLMHDLAKIRAEYELREMLLRLLEEIF [Peptide R2-1] | −0.1441 | – | – | – | – | – | −1.954 | −5.896 | 95.8 nM | ++ | 0.622 nM | – | increased activity as compared to control |
| GVAMIQIMHDIAKIRAEYELREMLLRLLEEIF [Peptide R2-2] | −1.586 and −3.87 | – | – | – | – | – | 2.528 and −0.3398 | −3.889 | 187 nM | – | – | – | – |
| SVMMIQVMHDLAKIRAEYELREMLLRLLEEIF [Peptide R2-8] | −2.339 | 3.7 nM | – | – | – | – | 4.445 | −24.9299 | 31.9 nM | ++ | 0.349 nM | – | increased activity as compared to control |

Further lines, with some results ahead:

| −log10Slope (PTHR1 [1]) | EC50 (PTHR1 [1]) | Emax (PTHR1 [2]) | EC50 (PTHR1 [2]; [4]) | −log10Slope (PTHR1 [2]; [5]) | cAMP (PTHR1 [2]; relative to PTH [1-34], CHO-K1/Ga15/PTHR1 cells) | −log10Slope (PTHR1 [3]) | −log10Slope (PTHR1 [2]; [6]) | EC50 (PTHR1 [2]; [7]) | β2-arrestin (PTHR1 [3]) | EC50 (PTHR1 [3]) | Sequence | cAMP accumulation activity compared to control peptide (PTHR1 [2]; FIG. 3, PTH 1-34 positive control) | β-arrestin2 assay activity compared to control peptide (PTHR1 [3]) |
| --- | --- | --- | --- | --- | --- | --- | --- | --- | --- | --- | --- | --- | --- |
| −1.524 | 29400 nM | 3.99% | 0.105 nM | 10.26 | ++ | −5.93 | – | – | – | – | GIAVITLMVLRALLELQEIGRKITLELLKEYI [Peptide R2-51] | increased activity as compared to the control peptide | – |
| −3.908 and −4.767 | 1200 nM | 99.8% | 574 nM | −8.416 | – | −1.169 and 10.26 | – | – | ++ | 0.0304 nM | GVAMLQIMHDLAKIKQELELKDSMKKILEDVL [Peptide R2-50] | – | increased activity as compared to control |
